From patent US5616615A, “Enaminone esters” (priority 1995, dated 1997)
Where two headings read alike, the source gives them in different places.

Experiments:
adenosine uptake = adenosine uptake assay
Neurotoxicity, rats ip = conditions: 100 mg/kg
Procedure: The rotorod test is used to elevate neurotoxicity. The animal is placed on a 1 inch diameter knurled plastic rod rotating at 6 rpm. […] Neurologic toxicity is defined as the failure of the animal to remain on the rod for 1 minute and the results are expressed as the number of animals protected/the number of animals tested.
The toxicity evaluation for the commercial agents as previously indicated was based on the onset of ataxia.

Corneal Kindled rats = experiment: Corneal kindling; assay type: in vivo; conditions: for Ave. seizure score: ranking 0-5; for ED50: Rattus norvegicus
Procedure: Corneal kindling studies were performed in our laboratories on 12 and 27 and the results are shown in Tables XI and XII and FIGS. 1A and 1B. Comparative data for the commercial products are included. Seizures evoked in electroshock-kindled rats provide a suitable model consistent with complex partial seizures evolving into generalized motor seizures in humans.
^a Rats kindled to Stage 5. Endpoint was reduction from Stage 5 to […]

[1] = test system: Maximal electroshock seizures; experiment: Phase VI oral MES test, rats; assay type: in vivo; conditions: oral; for responders at 6 mg/kg / responders at 10 mg/kg: Rattus norvegicus, read-out: MES, animals protected/tested (converted)
From the text: (§1) Maximal electroshock seizures are elicited with a 60-cycle alternating current of 50 mA intensity (5-7 times that necessary to elicit minimal electroshock seizures) delivered via corneal electrodes for 0.2 seconds. A drop of 0.9% saline is instilled in the eye prior to application of the electrodes in order to […].
(§2) This oral screen is designated as phase VI.

GABA receptor = GABA receptor binding test
[2] = test system: Maximal electroshock seizures; experiment: MES maximal electroshock seizure test, mice ip; assay type: in vivo; parameters: TPE (time of peak effect), activity: unit not given here; conditions: ip; for responders at 100 mg/kg: read-out: MES, animals protected/tested (converted); for responders at 300 mg/kg: read-out: MES, animals protected/tested
Procedure: Three tests were performed:
1. MES--Electroshock Seizure Test
as §1

[3] = test system: Subcutaneous Pentylenetetrazol seizure; experiment: sc Met subcutaneous pentylenetetrazol (Metrazol) seizure test, mice; assay type: in vivo; conditions: Mus musculus, sc, read-out: scMet, animals protected/tested (converted)
Procedure: The first phase of the ADD Program involved performing tests on male Carworth Farms #1 mice. […] Three tests were performed:
2. sc Met--Subcutaneous Pentylenetetrazol (Metrazol^R) Seizure Test
The animal is observed for 30 minutes. Failure to observe even a threshold seizure (a single episode of clonic spasms of at least 5 seconds duration) is defined as protection and the results are expressed as the number of animals protected/the number of animals tested.

bicuculline = experiment: Phase V quantification against bicuculline; assay type: in vivo; conditions: dose not given
Procedure: (§3) Both 12 and 27 were evaluated in Phase V of the ADD Program evaluation scheme. Phase V provides quantification against bicuculline, picrotoxin, pentylenetetrazol, and strychnine. This screen provides information on the mechanism of action of the anticonvulsant activity. Bicuculline, picrotoxin, and strychnine correspond to GABA inhibitory function, chloride channel inhibition and inhibition by glycine respectively.

benzodiazepine receptor = benzodiazepine receptor binding evaluation
Kinetic hydrolysis = assay type: physicochemical; conditions: for average absorbance value: over incubation periods
Procedure: This solution was 4.0×10^-5 M. Phosphate buffer, pH 7.4 and water were used in this study. All experiments were performed in triplicate. A volume of the stock ethanol solution of 1 (0.2 mL), was diluted with the appropriate solvent to make 1 mL of solution. Each mixture was sealed in a Teflon capped reaction vial and incubated at 37° C. for the same time periods as indicated in the ip rat toxicity study (Tables X and X-A). After each time period, the vials were removed from the incubator and quenched at -80° C. until ready for analysis. Initial scan (t=O h) indicated a λ max at 311 nm for 27. […] After all samples were incubated, the UV spectra was taken from 190-500 nm using the respective solvent as a blank. The results were plotted in terms of absorbance v, time of incubation and the absorbance values.

[4] = test system: Amygdala Kindled Seizures; experiment: Suppression of amygdala kindled seizures; assay type: in vivo
Procedure: Compounds 12 and 27 were evaluated in our laboratory for suppression of amygdala kindled seizures.

pentylenetetrazol = experiment: Phase V quantification against pentylenetetrazol; assay type: in vivo; conditions: dose not given
Procedure: as §3

[5] = test system: bicuculline, picrotoxin, pentylenetetrazol, and strychnine; conditions: in vivo
Procedure: as §3

in vivo [6] = conditions: mouse, in vivo, ip
strychnine = experiment: Phase V quantification against strychnine; assay type: in vivo; conditions: dose not given
Procedure: as §3

seizures = experiment: Anticonvulsant evaluation (ASP phase I / overall); assay type: in vivo, mice
Method in brief: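 Male Carworth Farms #1 mice; maximal electroshock seizures elicited by 60-cycle AC, 50 mA, 0.2 s via corneal electrodes after a drop of 0.9% saline in the eye. Animals observed for 30 minutes.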

picrotoxin = experiment: Phase V quantification against picrotoxin; assay type: in vivo; conditions: dose not given
Procedure: as §3

in vivo [7] = conditions: rat, po
From the text: as §2

## COC(=O)C1C(=O)C=C(Nc2ccc(Cl)cc2)CC1C (centres unmarked) [Compound 27]
Adenosine uptake
  adenosine uptake: inactive
Neurotoxicity, rats ip; 0.25 h (Table X-A)
  animals displaying neurotoxicity/tested: 0/8
Neurotoxicity, rats ip; 0.50 h (Table X-A)
  animals displaying neurotoxicity/tested: 3/8
Neurotoxicity, rats ip; 1.00 h (Table X-A)
  animals displaying neurotoxicity/tested: 6/8
Neurotoxicity, rats ip; 2.00 h (Table X-A)
  animals displaying neurotoxicity/tested: 7/8
Neurotoxicity, rats ip; 4.00 h (Table X-A)
  animals displaying neurotoxicity/tested: 2/8
Neurotoxicity, rats ip; 6.00 h (Table X-A)
  animals displaying neurotoxicity/tested: 1/8
Neurotoxicity, rats ip; 8.00 h (Table X-A)
  animals displaying neurotoxicity/tested: 0/8
Neurotoxicity, rats ip; 24.00 h (Table X-A)
  animals displaying neurotoxicity/tested: 2/8
Corneal Kindled rats; 20 mg/kg
  % Reduction: 40%
  Ave. seizure score: 3.0
Corneal Kindled rats; 30 mg/kg
  % Reduction: 40%
  Ave. seizure score: 3.0
Corneal Kindled rats; 40 mg/kg
  % Reduction: 49%
  Ave. seizure score: 2.6
Corneal Kindled rats; 50 mg/kg
  % Reduction: 87%
  Ave. seizure score: 1.7
Corneal Kindled rats; po, 0.5 h, read-out: ED50 (reduction from Stage 5 to Stage 4)
  ED50: 31.2 mg/kg
Corneal Kindled rats; read-out: ED50, corneal kindling
  ED50: 31.2 mg/kg
[1]; Phase VI, rat
  ED50: 5.79 mg/kg
[1]; 0.5 h, 0.50 h
  responders at 6 mg/kg: 75%
  responders at 10 mg/kg: 100%
[1]; 1.00 h
  responders at 6 mg/kg: 50%
  responders at 10 mg/kg: 100%
[1]; 2.00 h
  responders at 6 mg/kg: 25%
  responders at 10 mg/kg: 100%
[1]; 0.25 h
  responders at 10 mg/kg: 75%
[1]; 4.00 h
  responders at 10 mg/kg: 75%
GABA receptor
  GABA receptor binding: inactive
[2]; Mus musculus, 0.5 h, 30 min
  responders at 100 mg/kg: 100%
  responders at 300 mg/kg: 100%
[2]; Mus musculus, 4 h, 4 h
  responders at 100 mg/kg: 0%
  responders at 300 mg/kg: 100%
[2]; Mus musculus, Phase II, time of peak effect
  ED50: 26.2 mg/kg
[2]; Phase II
  TPE (time of peak effect), activity: 0.5
[3]; 0.5 h, 30 min
  responders at 100 mg/kg: 0%
  responders at 300 mg/kg: 0%
[3]; 4 h, 4 h
  responders at 100 mg/kg: 0%
  responders at 300 mg/kg: 0%
bicuculline
  protection against bicuculline: uniformly inactive
Benzodiazepine receptor
  benzodiazepine receptor binding: inactive
Kinetic hydrolysis; aqueous media, 37° C.
  average absorbance value: 0.929 (range 0.789-1.069)
Kinetic hydrolysis; pH 7.4 buffer, 37° C.
  average absorbance value: 1.112 (range 0.983-1.240)
Kinetic hydrolysis; water and pH 7.4 buffer, 37° C.
  change of wavelength (λ max) on incubation: the wavelength did not change from 311 nm
Kinetic hydrolysis; water vs pH 7.4 buffer
  significance of absorbance differences: not significant
[4]; 350 mg/kg
  Afterdischarge Amygdala: Duration: 79.8 s
  Afterdischarge Cortex: Duration: 79.6 s
  Afterdischarge Cortex: Latency: 2.7 s
  Behavioral Seizure: Duration: 82.3 s
  Behavioral Seizure: Latency: 2.1 s
  Forelimb Clonus: Duration: 45.3 s
  Forelimb Clonus: Latency: 9.2 s
  Seizure Stage: 5.0
[4]; in vivo
  suppression of amygdala kindled seizures: no significant activity
pentylenetetrazol
  protection against pentylenetetrazol: uniformly inactive
[5]
  threshold to chemostimulants: did not lower the threshold to these chemostimulants
In vivo [6]
  TD50: 255 mg/kg
  TPE (time of peak effect), toxicity: 2
  selectivity ratio: 9.72
strychnine
  protection against strychnine: uniformly inactive
seizures; 27 vs 16, 28 vs 17, 29 vs 20
  activity compared with benzylamine counterpart: activity is enhanced in all cases
seizures; Mus musculus, ip, Phase I, read-out: ASP Classification
  minimal effective dose: < 100 mg/kg
seizures; mouse, in vivo
  anticonvulsant activity: anticonvulsant activity was observed
picrotoxin
  protection against picrotoxin: uniformly inactive
In vivo [7]
  TD50: > 380 mg/kg
  selectivity ratio: 65.6
In vivo [7]; 6 mg/kg
  Tox, animals toxic/tested: 0/4
In vivo [7]; 10 mg/kg
  Tox, animals toxic/tested: 0/4
